Source: patent publication EP0435693B1, “Pharmaceutical compositions containing 3-oxygermylpropionic acid polymers for inhibiting the degeneration of cells” (SANWA KAGAKU KENKYUSHO CO., LTD., priority 1989, dated 1991)

Columns and labels:
SD masculine rats = test: Subacute toxicity, oral, three months; type: in vivo
Procedure: (§1) With (a) the 3-oxygermylpropionic acid according to this invention (hereinafter called SK-818) and (b) the composition of Preparation Ex. 1, SD rats and mice were subjected to acute and subacute (chronic) toxicity tests in conventional manner. (Groups of animals, 8-10 per group, were used for experimentation).
(a) SK-818 and (b) the composition of Preparation Ex. 1 were administered orally to SD masculine rats at doses of 256, 380, 640, 1300, 1600 and 4000 mg/kg/day over three months to determine the doses at which there was no toxic influence on the animals and the animals were absolutely poisoned, respectively.

SD rats = test: Acute toxicity test, per os, rats; type: in vivo
Description: as §1

Wistar masculine rats = test: Relief of nephrotoxicity of mercuric chloride; type: in vivo
Procedure: The effect of SK-818 on the impairment of kidney-function by mercuric chloride was examined, using blood-urinary nitrogen levels as an index.
Mercuric chloride was subcutaneously administered to Wistar masculine rats (seven weeks of age) 6-10 per group, at a dose of 1.2 mg/kg. From 24 hours after the administration till the lapse of 96 hours, the animals were permitted to freely drink an aqueous solution containing 2,400 ppm of SK-818 (at an average dose of 231±14 mg/kg). […]

ddy masculine mouse = test: Amnesia induced by carbon dioxide, passive avoidance in bright/dark box; type: in vivo; settings: Group B: SK-818 + Foot Shocks + CO₂ Gas, 10.0 mg/kg/day orally from 3 days before
Procedure: A ddy masculine mouse was encaged in a […] of a testing box (comprising bright and dark chambers, each measuring 15.0 x 17.5 x 18.5 cm and provided with an inlet/outlet combination of 6.0 x 6.0 cm, and the time which it took the animal to walk into the dark chamber (the reaction potential time during acquisition, hereinafter referred to as A.T.) was then measured. From just after the animal walked into the dark chamber, foot shocks of 2.5 mA were continuously applied to the animal through a floor grid with a shock generator scrambler, made by Astech Co., Ltd., until the animal walked into the bright chamber. Immediately after the acquisition trial, the animal was encaged in a desiccator, and 15 l/min of CO₂ gas were injected into the desiccator for 40 to 45 seconds for suffocation. After the animal was removed from the desiccator, artificial aspiration was immediately tried thereon. The animal was then put back in a home cage.
After 24 hours of the acquisition trial, the animal was again encaged in the bright chamber of the testing box to measure the time which it took the animal to walk into the dark chamber (or the reaction potential time during the retention trial, hereinafter referred to as R.T.). SK-818, in the form of a mixture with feed, had been administered orally to the animal from 3 days before at a dose of 10.0 mg/kg/day.

mice = test: Acute toxicity test, per os, mice; type: in vivo
Description: as §1

Type B chronic hepatitis = test: Clinical test for Type B chronic hepatitis against placebo; type: in vivo, patients
Procedure: The efficacy of SK-818 against Type B chronic hepatitis was examined, using a placebo as control.
The subjects were patients who had been diagnosed by biopsy as chronic hepatitis before at most one year in principle, were positive to HBe antigens and had Type B chronic hepatitis in need of treatment.
• (i) The drug under test was a capsule containing 10 mg of SK-818. • (ii) The control consisted only of lactose (a placebo).
The subjects followed the standard prescription of three capsules a day and one capsule each meal over 16 weeks in principle.
The general examination of the functioning of the livers and blood and the measurement of HBe antigens and antibodies were all carried out by the Virus Hepatitis Research Foundation.

[1] = orally, daily over three months
[2] = SK-818 against Placebo, time points with significance
[3] = determined by physicians, Total 95

Substance: 3-oxygermylpropionic acid [SK-818]
- mortality (SD masculine rats; At 4000 mg/kg, orally over three months): some animals died
- dose at which the animals were absolutely poisoned (SD masculine rats; [1]): 1600 mg/kg
- dose which had no toxic influence on the animals (SD masculine rats; [1]): 256 mg/kg
- LD50 (SD rats; female): 7,050 or more mg/kg
- LD50 (SD rats; male): 7,700 or more mg/kg
- Blood-urinary nitrogen (Wistar masculine rats; 0 hour, mercuric chloride 1.2 mg/kg s.c.): 15.1 ± 0.4 mg/dL
- Blood-urinary nitrogen (Wistar masculine rats; 24 hours after mercuric chloride, drinking of 2400ppm aqueous solution starts at 24 hours): 31.9 ± 1.3 mg/dL
- Blood-urinary nitrogen (Wistar masculine rats; 48 hours after mercuric chloride, 2400ppm aqueous solution): 50.6 ± 9.8 mg/dL
- Blood-urinary nitrogen (Wistar masculine rats; 72 hours after mercuric chloride, 2400ppm aqueous solution): 45.9 ± 13.8 mg/dL
- Blood-urinary nitrogen (Wistar masculine rats; 92 hours after mercuric chloride, 2400ppm aqueous solution): 30.9 ± 9.4 mg/dL
- A.T. (reaction potential time during acquisition) (ddy masculine mouse): 48.5 ± 9.1 s
- R.T. (reaction potential time during the retention trial) (ddy masculine mouse; 24 hours after acquisition): 276.5 ± 19.3 s
- LD50 (mice; female): 5,800 or more mg/kg
- LD50 (mice; male): 5,600 or more mg/kg
- GOT (Type B chronic hepatitis; 4W): ↓ *
- GPT (Type B chronic hepatitis; 4W): ↓ *
- HBe antibodies (RIA%) (Type B chronic hepatitis; 4W): ↑ *
- HBe antigens (EIA) log (Type B chronic hepatitis; 4W): ↓***
- LDH (mu/ml) (Type B chronic hepatitis; 4W): ↓ +
- Total Bilirubin (mg/dl) (Type B chronic hepatitis; 4W): ↓ *
- AIP (KA) (Type B chronic hepatitis; 8W): ↓ +
- Cholinesterase (ΔPH) (Type B chronic hepatitis; 8W): ↑ *
- GOT (Type B chronic hepatitis; 8W): ↓ +
- GPT (Type B chronic hepatitis; 8W): ↓**
- HBe antibodies (RIA%) (Type B chronic hepatitis; 8W): ↑ *
- HBe antigens (EIA) log (Type B chronic hepatitis; 8W): ↓ **
- LDH (mu/ml) (Type B chronic hepatitis; 8W): ↓ +
- Total Cholesterol (mg/dl) (Type B chronic hepatitis; 8W): ↑ *
- AIP (KA) (Type B chronic hepatitis; 12W): ↓ +
- Cholinesterase (ΔPH) (Type B chronic hepatitis; 12W): ↑ *
- GOT (Type B chronic hepatitis; 12W): ↓***
- GPT (Type B chronic hepatitis; 12W): ↓***
- HBe antibodies (RIA%) (Type B chronic hepatitis; 12W): ↑ **
- HBe antigens (EIA) log (Type B chronic hepatitis; 12W): ↓***
- LDH (mu/ml) (Type B chronic hepatitis; 12W): ↓ *
- Serum Albumin (g/dl) (Type B chronic hepatitis; 12W): ↑ *
- TTT (Type B chronic hepatitis; 12W): ↓**
- Total Cholesterol (mg/dl) (Type B chronic hepatitis; 12W): ↑ *
- ZTT (Type B chronic hepatitis; 12W): ↓**
- γ-GTP (mu/ml) (Type B chronic hepatitis; 12W): ↓**
- γ-Globulin (g/dl) (Type B chronic hepatitis; 12W): ↓**
- GOT (Type B chronic hepatitis; 16W): ↓***
- GPT (Type B chronic hepatitis; 16W): ↓***
- HBe antibodies (RIA%) (Type B chronic hepatitis; 16W): ↑ *
- HBe antigens (EIA) log (Type B chronic hepatitis; 16W): ↓***
- Serum Albumin (g/dl) (Type B chronic hepatitis; 16W): ↑ +
- TTT (Type B chronic hepatitis; 16W): ↓***
- Total Cholesterol (mg/dl) (Type B chronic hepatitis; 16W): ↑ *
- ZTT (Type B chronic hepatitis; 16W): ↓**
- γ-GTP (mu/ml) (Type B chronic hepatitis; 16W): ↓ **
- γ-Globulin (g/dl) (Type B chronic hepatitis; 16W): ↓***
- Cholinesterase (ΔPH) (Type B chronic hepatitis; Af4W (after 4 weeks)): ↑ *
- GOT (Type B chronic hepatitis; Af4W (after 4 weeks)): ↓ **
- GPT (Type B chronic hepatitis; Af4W (after 4 weeks)): ↓ **
- HBe antibodies (RIA%) (Type B chronic hepatitis; Af4W (after 4 weeks)): ↑ *
- HBe antigens (EIA) log (Type B chronic hepatitis; Af4W (after 4 weeks)): ↓***
- TTT (Type B chronic hepatitis; Af4W (after 4 weeks)): ↓***
- ZTT (Type B chronic hepatitis; Af4W (after 4 weeks)): ↓**
- γ-GTP (mu/ml) (Type B chronic hepatitis; Af4W (after 4 weeks)): ↓ **
- γ-Globulin (g/dl) (Type B chronic hepatitis; Af4W (after 4 weeks)): ↓***
- Cholinesterase (ΔPH) (Type B chronic hepatitis; Af8W (after 8 weeks)): ↑**
- GOT (Type B chronic hepatitis; Af8W (after 8 weeks)): ↓ **
- GPT (Type B chronic hepatitis; Af8W (after 8 weeks)): ↓ **
- HBe antibodies (RIA%) (Type B chronic hepatitis; Af8W (after 8 weeks)): ↑ **
- HBe antigens (EIA) log (Type B chronic hepatitis; Af8W (after 8 weeks)): ↓***
- TTT (Type B chronic hepatitis; Af8W (after 8 weeks)): ↓ *
- Total Cholesterol (mg/dl) (Type B chronic hepatitis; Af8W (after 8 weeks)): ↑*
- ZTT (Type B chronic hepatitis; Af8W (after 8 weeks)): ↓ *
- γ-GTP (mu/ml) (Type B chronic hepatitis; Af8W (after 8 weeks)): ↓ *
- γ-Globulin (g/dl) (Type B chronic hepatitis; Af8W (after 8 weeks)): ↓ *
- Cholinesterase (ΔPH), Differences between groups (Type B chronic hepatitis; [2]): 4w* 12W** Af4W* 8w** 16w* Af8w+
- GPT, Differences between groups (Type B chronic hepatitis; [2]): 8w* 12w** 16W* Af4w*
- HBe antibodies (RIA%), Differences between groups (Type B chronic hepatitis; [2]): 4W* 12W* 16W* Af8w+
- HBe antigens (EIA) log, Differences between groups (Type B chronic hepatitis; [2]): 4W** 12W* 16W* Af4w*
- TTT, Differences between groups (Type B chronic hepatitis; [2]): Af4w+
- Total Cholesterol (mg/dl), Differences between groups (Type B chronic hepatitis; [2]): 8W* 16W** 12W** Af8w*
- γ-Globulin (g/dl), Differences between groups (Type B chronic hepatitis; [2]): 12W+ Af4w* 16w+ Af8w+
- Rate of Amelioration, Slightly ameliorated or more (Type B chronic hepatitis; determined by physicians, P=0.0011 against placebo): 57.9%
- Rate of Amelioration, Ameliorated to some or higher extent (Type B chronic hepatitis; determined by physicians, P=0.0114 against placebo): 36.8
- Degree of Amelioration: Ameliorated to some extent (number of cases) (Type B chronic hepatitis; [3]): 23
- Degree of Amelioration: Less aggravated (number of cases) (Type B chronic hepatitis; [3]): 5
- Degree of Amelioration: Nochange (number of cases) (Type B chronic hepatitis; [3]): 31
- Degree of Amelioration: Slightly ameliorated (number of cases) (Type B chronic hepatitis; [3]): 20
- Degree of Amelioration: aggravated (number of cases) (Type B chronic hepatitis; [3]): 4
- Degree of Amelioration: seriously aggravated (number of cases) (Type B chronic hepatitis; [3]): 0
- Degree of Amelioration: Remarkably ameliorated (number of cases) (Type B chronic hepatitis; determined by physicians, Total 95, 10 mg capsule three a day over 16 weeks): 12
